Reference: paper PMC8828861 (Communications Biology, 2022)

What was measured:
[1] = target: M. tuberculosis Rho (MtbRho) (Mycobacterium tuberculosis, UniProt P9WHF3); type: binding
[2] = target: the molecule itself; assay: SEC-MALS

Sequence of M. tuberculosis Rho (MtbRho) (P9WHF3 whole entry): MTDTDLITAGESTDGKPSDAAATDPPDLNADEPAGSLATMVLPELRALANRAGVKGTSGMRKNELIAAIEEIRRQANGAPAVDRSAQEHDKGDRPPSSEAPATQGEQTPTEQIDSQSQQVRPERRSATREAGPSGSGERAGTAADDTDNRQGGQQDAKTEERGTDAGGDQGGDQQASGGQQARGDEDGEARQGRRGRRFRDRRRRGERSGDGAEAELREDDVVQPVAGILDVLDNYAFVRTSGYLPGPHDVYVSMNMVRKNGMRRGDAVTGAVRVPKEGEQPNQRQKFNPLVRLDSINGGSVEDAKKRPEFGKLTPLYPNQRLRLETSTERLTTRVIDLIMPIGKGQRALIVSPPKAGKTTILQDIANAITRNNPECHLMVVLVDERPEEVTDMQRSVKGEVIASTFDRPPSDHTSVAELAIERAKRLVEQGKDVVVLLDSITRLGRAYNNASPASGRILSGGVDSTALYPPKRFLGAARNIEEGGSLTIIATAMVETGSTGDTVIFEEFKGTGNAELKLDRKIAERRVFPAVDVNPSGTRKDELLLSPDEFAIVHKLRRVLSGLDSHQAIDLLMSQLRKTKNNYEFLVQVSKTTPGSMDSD

Molecule	cryo-EM structure, 3.3 Å, 6 ATP per hexamer [1]	stoichiometry N [2]
Nc1ncnc2c1ncn2[C@@H]1O[C@H](COP(=O)(O)OP(=O)(O)OP(=O)(O)O)[C@@H](O)[C@H]1O [ATP]	clear electron density in all the ATPase pockets of MtbRho reveals that ATP ligands are held by a network	
Mycobacterium tuberculosis transcription termination factor Rho (enzyme, also called MtbRho; WT MtbRho) TDTDLITAGESTDGKPSDAAATDPPDLNADEPAGSLATMVLPELRALANRAGVKGTSGMRKNELIAAIEEIRRQANGAPAVDRSAQEHDKGDRPPSSEAPATQGEQTPTEQIDSQSQQVRPERRSATREAGPSGSGERAGTAADDTDNRQGGQQDAKTEERGTDAGGDQGGDQQASGGQQARGDEDGEARQGRRGRRFRDRRRRGERSGDGAEAELREDDVVQPVAGILDVLDNYAFVRTSGYLPGPHDVYVSMNMVRKNGMRRGDAVTGAVRVPKEGEQPNQRQKFNPLVRLDSINGGSVEDAKKRPEFGKLTPLYPNQRLRLETSTERLTTRVIDLIMPIGKGQRALIVSPPKAGKTTILQDIANAITRNNPECHLMVVLVDERPEEVTDMQRSVKGEVIASTFDRPPSDHTSVAELAIERAKRLVEQGKDVVVLLDSITRLGRAYNNASPASGRILSGGVDSTALYPPKRFLGAARNIEEGGSLTIIATAMVETGSTGDTVIFEEFKGTGNAELKLDRKIAERRVFPAVDVNPSGTRKDELLLSPDEFAIVHKLRRVLSGLDSHQAIDLLMSQLRKTKNNYEFLVQVSKTTPGSMDSD		6
